Results as given in patent publication US11325892B2, “Compounds and methods for treating cancer” (Mayo Foundation for Medical Education and Research, priority 2014, dated 2022).
Like-named read-outs stand apart in the source and are kept apart here.

How the values were obtained:
Format in all cases: cell-based
[1] = test system: A498, ACHN, and Caki1 cell lines; experiment: Oleic acid (OA) rescue assay of cell proliferation in ccRCC cells; conditions: EC50 dose of compound with OA (5 μg/μL); all three cell lines
Experimental: (§1) Cells were seeded at 5,000 cells/well in clear-bottom 96-well plates in triplicate in Maintenance Media. Drug treatment was applied at a concentration of 1:1000 in reduced serum (3%) Maintenance Media. After 72 hours, cells were washed with PBS, and stored at −80° C. prior to analysis using CyQuant® Proliferation Analysis Kit (Invitrogen) as per manufacturers' protocol for relative fluorescence units. Alternatively, cells were plated 2×10^5/well in 12-well plates (Midwest Scientific) in triplicate prior to drug treatment. After 120 hour treatment, cell number was established using a Coulter Particle Counter (Beckman). Or, cells were plated (0.5 or 1×10^5/well) in 24-well plates (Midwest Scientific), 3×. After 72 hour treatment, cell number established using Coulter Particle Counter (Beckman). Oleic acid-albumin (Sigma Aldrich) was added to media at 5 μM, and was applied adjuvant to drug treatment. Drug stocks were prepared in DMSO (Sigma) at 1000×. EC50 dosing per cell line was calculated using CalcuSyn® analytical software.
A498, ACHN, and Caki1 cell lines were treated with the EC50 dose of each MF-438, ChemBL375265, SSI-1, SSI-4, SSI-3, and SSI-2 with or without concomitant application of OA (5 μg/μL). […] Representative images of A498 cell morphology and density treated with each compound +/−OA are shown in (FIG. 2B).

[2] = test system: ATF6-UPRE luciferase reporter in A498 and ACHN cells; experiment: ATF6-UPRE luciferase reporter assay; conditions: EC50 dose, 24H; both cell lines A498 and ACHN; completely blocked with OA
Experimental: A498 and ACHN cells were transiently transfected with p5×ATF6-GL3 UPR luciferase reporter (Addgene plasmid#11976) and pRL-CMV-renilla (Promega) using Lipofectamine 2000 (Invitrogen). Cells were treated as indicated for 24H, prior to collection and analysis using Promega Dual Luciferase assay kit per manufacturer's specifications. Luciferase activity was measured using Veritas Luminometer (Promega); and results are reported as relative luminescence.
(§2) Activating transcription factor 6 (ATF6) is a key regulator of the unfolded protein response (UPR) that recognizes unfolded protein response elements (UPRE) in the promoter regions of several key mediators of the ER stress response, initiating their transcription (Wang Y, Shen J, Arenzana N, Tirasophon W, Kaufman R J, Prywes R. Activation of ATF6 and an ATF6 DNA binding site by the endoplasmic reticulum stress response. J Biol Chem. Sep. 1, 2000; 275(35):27013-27020). A498 and ACHN transfected with an ATF6-UPRE luciferase reporter were treated with the EC50 doses of ChemBL375265, SSI-1, SSI-4, SSI-3, and SSI-2 with or without OA supplementation were evaluated in order to determine whether the identified compounds could recapitulate activation of the UPR. […] Upregulation of the UPR markers BiP (heat shock 70 kDa protein, GRP78) and CHOP (damage inducible transcript 3, DDIT3) was evaluated by Western blot in A498 and ACHN cells treated with the EC50 doses of ChemBL375265, SSI-1, SSI-4, SSI-3, and SSI-2 with or without OA supplementation.

[3] = test system: BiP and CHOP expression in A498 and ACHN cells; experiment: Western blot for UPR markers BiP and CHOP; conditions: EC50 dose; both cell lines; blocked with concomitant OA treatment
Experimental: Protein extraction and western blot analysis was performed as previously described (Copland J A, Marlow L A, Kurakata S, et al. Novel high-affinity PPARgamma agonist alone and in combination with paclitaxel inhibits human anaplastic thyroid carcinoma tumor growth via p21WAF1/CIP1. Oncogene. Apr 13 2006; 25(16):2304-2317). Primary antibodies included SCD1 (Sigma-Aldrich, #HPA012107), BiP (Cell Signaling, #3183), CHOP (Cell Signaling, #2895), sXBP1(Santa Cruz Biotechnology, #sc-7160), PARP(Cell Signaling, #9542), and β-actin (Sigma-Aldrich, #A5441).
as §2

[4] = test system: HK2, a transformed renal epithelial cell line; experiment: High-throughput proliferative screen, non-cancerous cells
Experimental: as §1
In order to identify potential SCD1 inhibitors, a high-throughput proliferative-based screening method was used, with four ccRCC cell lines including A498, ACHN, Caki1, and Caki2. The SCD1 inhibitor MF-438 was included as a positive control. Known compounds ChemBL375265 (Liu G, Lynch J K, Freeman J, et al. Discovery of potent, selective, orally bioavailable stearoyl-CoA desaturase 1 inhibitors. Journal of medicinal chemistry. Jun. 28, 2007; 50(13): 3086-3100) (SetA.100) and SAR707 (Voss M D, Zoller G, Matter H, et al. Discovery and pharmacological characterization of SAR707 as novel and selective small molecule inhibitor of stearoyl-CoA desaturase (SCD1). European journal of pharmacology. May 5, 2013; 707(1-3): 140-146) (TC03.100) were included as single-blinded positive controls, and are indicated with an asterisk (*). […]

[5] = test system: kidney cancer cells; experiment: Combination with mTor inhibitor temsirolimus, cell proliferation; conditions: different concentrations with 0, 0.1, 1, and 10 nM temsirolimus
[6] = test system: SNU449 HCC cells; experiment: SNU449 cell proliferation (cellular DNA, Hoechst); conditions: Homo sapiens
Experimental: SNU449 HCC cells were plated at 20,000 cells/well in 12-well plates. The next day, cells were treated with SSI-4, sorafenib or sorafenib plus SSI-4 at the indicated doses. […] On day 5, cells were frozen, DNA isolated and quantitated by […] (Hoechst reagent) in a spectrophotometer. Cellular DNA is directly proportional to cell number and is commonly used as a measure of cell number. All doses are in replicates of three with the mean +/−standard deviation determined.

Row | SMILES | rescue of cell proliferation with OA [1] | luciferase activity [2] | BiP and CHOP expression [3] | reduction in cell proliferation [4] | kidney cancer cell proliferation [5] | IC50 ([6]; SNU-449, SNU449, read-out: IC50 (dose at which 50% of cell proliferation is inhibited)) | IC50 ([6]; SNU-449, read-out: IC50 (dose at which 50% of cell proliferation is inhibited))
1 | CNC(=O)c1ccnc(NC(=O)N2CCC(Oc3ccccc3Cl)CC2)c1 [SSI-4, 2-{[4-(2-Chlorophenoxy)piperidine-1-carbonyl]amino}-N-methylpyridine-4-carboxamide] | Near total rescue of cell proliferation | significant upregulation of luciferase activity | strongly induced both BiP and CHOP expression | approximately 20% | reduced kidney cancer cell proliferation | 0.0032 µM | 
2 | CNC(=O)c1cc(Oc2ccc(NC(=O)Nc3ccc(Cl)c(C(F)(F)F)c3)cc2)ccn1 [sorafenib] |  |  |  |  |  |  | 2 µM
